Source: patent US12486246B2, “Replication protein A (RPA)-DNA interaction inhibitors” (THE TRUSTEES OF INDIANA UNIVERSITY, priority 2019, dated 2025)

Columns and labels:
[1] = target: T1, full length heterotrimeric human RPA (Homo sapiens, UniProt P27694); assay: Electrophoretic mobility shift assay (EMSA), binding of full length human RPA to ssDNA; conditions: for IC50: full length human RPA binding to DNA, mean ± SD of minimum triplicate experiments
T1 construct: Full length, heterotrimeric human RPA (fl-RPA) and DBD-A/B constructs were expressed and purified; made in house
Procedure: (§1) Full length, heterotrimeric human RPA (fl-RPA) and DBD-A/B constructs were expressed and purified according to previously described protocol. The DBD-A/B construct was expressed as a His6-RPA181-422 fusion protein. E. coli BL21 (DE3) cells in log growth were induced for 3 h with 0.5 mM IPTG at 37° C. The cells were lysed via sonication in buffer containing 20 mM Tris pH 7.5, 500 mM NaCl, 10 mM b-mercaptoethanol, supplemented with 25 μg/mL lysozyme, 1 μg/mL leupeptin, 1 μg/mL pepstatin and 0.5 mM PMSF. The lysate was applied to a 20 mL phosphocellulose column equilibrated in the same buffer and the flow-through material collected, brought to 5 mM Imidazole and loaded onto a 2 ml Ni-NTA column. The column was washed and proteins eluted on with a gradient from 50 mM to 500 mM imidazole. Fractions were assessed by EMSA and SDS-PAGE and DBD-A/B containing fraction were pool, dialyzed against buffer containing 50 mM HEPES pH 7.0, 500 mM NaCl and 1 mM DTT and stored at −80° C.
(§2) EMSAs were carried out using previously described procedure with the following modification. EMSA reactions (20 μL) were performed with 50 nM fl-RPA and 2.5 nM 5′ [^32P]-labeled 34-base DNA in buffer containing 20 mM HEPES (pH 7.8), 1 mM DTT, 0.001% NP-40, 50 mM NaCl. Chemical compounds were suspended in DMSO and DMSO concentration in the reaction mixture was kept constant at 2% or below 5%. RPA was incubated with inhibitor or DMSO control in reaction buffer for 30 min before the addition of DNA. Reactions were incubated for 5 min at room temperature and products separated via 6% native polyacrylamide gel electrophoresis. The bound and unbound fractions were then quantified by phosphor-imager analysis using ImageQuant software (Molecular Dynamics, CA) and IC50 values calculated by non-linear regression using SigmPlot (Sysat). For EMSA reactions with RPA DBD-A/B, 150 nM DBD-A/B was used, and electrophoresis was performed at 4° C. All other conditions were identical to those described for the full-length RPA.
Purified full length heterotrimeric human RPA protein was used to screen a series of analogs in an electrophoretic mobility shift assay (EMSA) measuring direct binding to a ss-DNA substrate. Quantification of the EMSA data and additional concentration dependent analysis to measure IC50 values of newly synthesized analogs provided potential insight into the structure-activity relationships (Table 1 and 2). […] Fluorine and trifluoromethyl substituents were included in pyridinyl compounds 28-29.

[2] = target: T2, RPA DBD-A/B construct (His6-RPA181-422 of RPA70) (Homo sapiens, UniProt P27694); assay: EMSA, binding of RPA DBD-A/B construct to DNA; conditions: mean ± SD, read-out: RPAA/B IC50
T2 construct: The DBD-A/B construct was expressed as a His6-RPA181-422 fusion protein; His6 (N); made in house; host or cells: E. coli BL21 (DE3)
Procedure: as §1, §2
These domains are compact modular domains populated with hydrophobic and basic DNA binding amino acid residues and have great potential to influence binding of the compounds to the RPA70 subunit. RPA DBD-A/B construct was purified via Ni-affinity chromatography. The activity of compounds 23-27 was evaluated on purified DBD-A/B construct using EMSA.

[3] = tested on: sonicated salmon sperm DNA; assay: Fluorescent intercalator displacement (FID) assay, SYBR-Green; format: binding; conditions: 25 mM MOPS pH 6.5
Procedure: The analysis of compound interactions with DNA was determined by inhibition of SYBR-Green intercalation into DNA as we have previously described. Briefly, reactions were performed in 25 mM MOPS (pH 6.5) containing sonicated salmon sperm DNA (8.29 ng/μL), SYBR-Green, and the indicated concentrations of RPA inhibitors. Reactions were conducted in black 96-well plates. Doxorubicin, a known noncovalent DNA binding chemotherapeutic, was used as a positive control. Fluorescence was measured using a BioTek® Synergy™ H1 hybrid multi-mode microplate reader with an excitation wavelength of 485 nm, emission wavelength of 528 nm, and a read height of 7 mm. Data were collected using BioTek® Gen5™ reader software. Reactions were incubated a maximum of 5 min before measurements were collected.
(§3) In order to probe the potential role of DNA intercalation as a mechanism for RPA inhibition, compounds 19, 23, 26, 27, 43 and 45 were analyzed using FID assay along with doxorubicin (Dox) as a positive control. […] In addition, direct binding of 9 derivatives to the target protein was assessed using a differential scan fluorimetry (DSF) assay. This assay assesses the melting profile of a protein at increasing temperatures via fluorescent dye binding. The direct interaction of a small molecule to the target protein can either increase or decrease the melting temperature (Tm) of the target depending on the specific protein and their interactions. […] Heparin sulfate, a known RPA interacting molecule often used in the purification of the protein was used as a control. […] (data not shown). […] (FIG. 1B).

[4] = Aqueous solubility in unbuffered water; format: physicochemical; conditions: 43, 44, 45, 46, 47 vs 9, 16, 26, 28, 29 respectively
Procedure: Aqueous solubility was determined by suspending compound in un-buffered water with stirring. Insoluble material was removed by sedimentation or filtration and soluble compound quantified by absorbance spectroscopy and LC/MS. pH dependence was determined by suspending compound in 10 mM citrate buffer at pH 4.0 or 10 mM phosphate […] as described above in the description.
The morpholine ring is commonly introduced into solvent exposed regions as a privileged solubilizing group to improve solubility or pharmacokinetic properties including metabolic stability of a prospective drug scaffold which is exemplified by many FDA approved drugs. Modifications on Ring A had less of an effect than the morpholino modifications at the alkyl carboxylic acid side chain. To determine the effect of pH on solubility, we prepared solution at 1 mM in citrate buffer at pH 4, phosphate buffer at pH 7 and carbonate buffer at pH 9.5.

[5] = target: T3, RPA-AB construct (RPA70 AB domain) (Homo sapiens, UniProt P27694); assay: Differential scanning fluorimetry (DSF); format: binding
T3 construct: The DBD-A/B construct was expressed as a His6-RPA181-422 fusion protein; His6 (N); made in house; host or cells: E. coli BL21 (DE3)
Procedure: as §3
The interaction of compound 43 with RPA-AB constructs was performed by differential scanning fluorimetry using GloMelt™ Dye (Biotum). […] Reactions were run in an ABI 7500 real time PCR machine with temperature increasing from 25° C. to 99° C. at a 2% ramp (˜40 minutes) and fluorescence of the reporter was measured on the SYBR® Green setting. […] Data was uploaded to TSA-CRAFT software and Tm calculated as described by Lee et al. Heparin was employed as a positive control of binding to the AB-box of RPA.

T1 sequence (P27694 whole entry): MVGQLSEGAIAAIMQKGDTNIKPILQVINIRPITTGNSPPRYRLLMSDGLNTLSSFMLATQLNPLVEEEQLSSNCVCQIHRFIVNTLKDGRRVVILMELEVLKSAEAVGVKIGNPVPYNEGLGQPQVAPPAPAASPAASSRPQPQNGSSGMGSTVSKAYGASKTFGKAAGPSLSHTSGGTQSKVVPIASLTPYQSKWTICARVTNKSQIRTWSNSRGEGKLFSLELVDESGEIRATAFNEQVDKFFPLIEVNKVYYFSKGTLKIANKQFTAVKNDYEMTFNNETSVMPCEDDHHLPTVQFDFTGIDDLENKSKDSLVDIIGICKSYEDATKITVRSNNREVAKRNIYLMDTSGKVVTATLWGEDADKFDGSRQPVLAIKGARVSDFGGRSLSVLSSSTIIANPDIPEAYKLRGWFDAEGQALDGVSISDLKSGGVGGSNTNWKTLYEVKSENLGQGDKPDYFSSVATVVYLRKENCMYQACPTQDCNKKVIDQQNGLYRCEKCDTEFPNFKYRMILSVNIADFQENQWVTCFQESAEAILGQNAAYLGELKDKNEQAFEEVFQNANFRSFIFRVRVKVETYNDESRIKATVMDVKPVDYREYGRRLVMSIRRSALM
T1 sequence (P15927 whole entry partner): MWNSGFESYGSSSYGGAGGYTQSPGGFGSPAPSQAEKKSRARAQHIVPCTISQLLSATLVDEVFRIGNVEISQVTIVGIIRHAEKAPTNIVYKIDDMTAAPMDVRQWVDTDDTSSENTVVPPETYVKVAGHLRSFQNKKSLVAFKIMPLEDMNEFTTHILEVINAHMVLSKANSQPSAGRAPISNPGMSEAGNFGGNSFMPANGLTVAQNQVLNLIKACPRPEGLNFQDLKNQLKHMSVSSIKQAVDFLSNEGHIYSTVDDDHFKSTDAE
T1 sequence (P35244 whole entry partner): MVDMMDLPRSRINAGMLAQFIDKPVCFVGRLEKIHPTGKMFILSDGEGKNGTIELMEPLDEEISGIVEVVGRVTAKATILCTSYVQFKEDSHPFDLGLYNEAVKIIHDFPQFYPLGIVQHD
T2 sequence (P27694 181-422): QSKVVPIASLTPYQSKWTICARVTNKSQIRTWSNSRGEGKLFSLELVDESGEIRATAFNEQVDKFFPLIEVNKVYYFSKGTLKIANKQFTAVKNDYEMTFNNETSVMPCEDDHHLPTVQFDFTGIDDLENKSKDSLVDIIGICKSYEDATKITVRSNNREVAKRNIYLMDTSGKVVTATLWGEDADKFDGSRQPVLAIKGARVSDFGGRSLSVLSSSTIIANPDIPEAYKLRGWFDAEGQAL
T3 sequence (P27694 181-422): as above

Molecule	fold increase in activity compared to compound 22 ([1]; full length RPA)	IC50 [1]	IC50 [2]	DNA binding activity (displacement of SYBR-Green intercalator) [3]	aqueous solubility compared to carboxylic acid counterpart (in words) [4]	decrease in Tm [5]
CCOc1ccc2cc(C3CC(c4ccc(-c5ccc(N6CCOCC6)cc5)cc4)=NN3C(=O)CCCC(=O)O)c(Cl)nc2c1 (centres unmarked) [Compound 25, 5-(5-(2-Chloro-7-ethoxyquinolin-3-yl)-3-(4′-morpholino-[1,1′-biphenyl]-4-yl)-4,5-dihydro-1H-pyrazol-1-yl)-5-oxopentanoic acid]		3.14 ± 0.23 µM	16.4 ± 2.09 µM			
CCOc1ccc2cc(C3CC(c4ccc(-c5ccc(Cl)nc5)cc4)=NN3C(=O)CCCC(=O)NCCCN3CCOCC3)c(Cl)nc2c1 (centres unmarked) [Compound 45, 5-(5-(2-Chloro-7-ethoxyquinolin-3-yl)-3-(4-(6-chloropyridin-3-yl)phenyl)-4,5-dihydro-1H-pyrazol-1-yl)-N-(3-morpholinopropyl)-5-oxopentanamide]		4.06 ± 0.56 µM		No significant DNA binding activity	increased solubility	
CCOc1ccc2cc(C3CC(c4ccc(-c5ccc(C(F)(F)F)nc5)cc4)=NN3C(=O)CCCC(=O)NCCCN3CCOCC3)c(Cl)nc2c1 (centres unmarked) [Compound 47, 5-(5-(2-Chloro-7-ethoxyquinolin-3-yl)-3-(4-(6-(trifluoromethyl)pyridin-3-yl)phenyl)-4,5-dihydro-1H-pyrazol-1-yl)-N-(3-morpholinopropyl)-5-oxopentanamide]		5.85 ± 0.39 µM			increased solubility	
heparin [reference compound]						1.2 °C

Second part, the molecule after the results:

fold increase in activity compared to compound 22 ([1]; full length RPA)	IC50 [1]	IC50 [2]	DNA binding activity (displacement of SYBR-Green intercalator) [3]	aqueous solubility compared to carboxylic acid counterpart (in words) [4]	decrease in Tm [5]	Molecule
~3.2 fold	2.1 ± 0.48 µM	3.3 ± 0.07 µM	No significant DNA binding activity			CCOc1ccc2cc(C3CC(c4ccc(-c5ccco5)cc4)=NN3C(=O)CCCC(=O)O)c(Cl)nc2c1 (centres unmarked) [Compound 23, 5-(5-(2-Chloro-7-ethoxyquinolin-3-yl)-3-(4-(furan-2-yl)phenyl)-4,5-dihydro-1H-pyrazol-1-yl)-5-oxopentanoic acid]
	1.71 ± 0.28 µM	4.03 ± 0.28 µM				CCOc1ccc2cc(C3CC(c4ccc(-c5cnoc5)cc4)=NN3C(=O)CCCC(=O)O)c(Cl)nc2c1 (centres unmarked) [Compound 24, 5-(5-(2-Chloro-7-ethoxyquinolin-3-yl)-3-(4-(isoxazol-4-yl)phenyl)-4,5-dihydro-1H-pyrazol-1-yl)-5-oxopentanoic acid]
	1.01 ± 0.6 µM	3.32 ± 0.016 µM	No significant DNA binding activity			CCOc1ccc2cc(C3CC(c4ccc(-c5ccc(Br)nc5)cc4)=NN3C(=O)CCCC(=O)O)c(Cl)nc2c1 (centres unmarked) [Compound 27, 5-(3-(4-(6-Bromopyridin-3-yl)phenyl)-5-(2-chloro-7-ethoxyquinolin-3-yl)-4,5-dihydro-1H-pyrazol-1-yl)-5-oxopentanoic acid]
